Measurements as given in PubChem BioAssay AID1845196 (Molecular Pharmacology Branch, DTP, NCI, 2023).

System: 292921-168-R tumor spheroid viability
Assay: Anticancer human tumor 292921-168-R patient-derived pancreatic carcinoma cell line growth inhibition
Conditions: spheroids with HUVEC and MSC; for IC50: curve of first compound; for viability, T/C: stronger effect = lower value
In short: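 Complex spheroids of malignant cells with endothelial cells and mesenchymal stem cells; agents alone or combined, from near clinical Cmax (or 10 microM if unknown) down in half-log steps, 0.25% DMSO final.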

[1] = second compound 30 pM, first compound 0.0316 µM
[2] = second compound 30 pM, first compound 0.1 µM
[3] = second compound 30 pM, first compound 0.316 µM
[4] = second compound 30 pM, first compound 1 µM
[5] = second compound 30 pM, first compound 3.16 µM
[6] = second compound 30 pM, first compound 10 µM
[7] = second compound 94.9 pM, first compound 0.0316 µM
[8] = second compound 94.9 pM, first compound 0.1 µM
[9] = second compound 94.9 pM, first compound 0.316 µM
[10] = second compound 94.9 pM, first compound 1 µM
[11] = second compound 94.9 pM, first compound 3.16 µM
[12] = second compound 94.9 pM, first compound 10 µM
[13] = second compound 0.0003 µM, first compound 0.0316 µM
[14] = second compound 0.0003 µM, first compound 0.1 µM
[15] = second compound 0.0003 µM, first compound 0.316 µM
[16] = second compound 0.0003 µM, first compound 1 µM
[17] = second compound 0.0003 µM, first compound 3.16 µM
[18] = second compound 0.0003 µM, first compound 10 µM
[19] = second compound 0.000949 µM, first compound 0.0316 µM
[20] = second compound 0.000949 µM, first compound 0.1 µM
[21] = second compound 0.000949 µM, first compound 0.316 µM
[22] = second compound 0.000949 µM, first compound 1 µM
[23] = second compound 0.000949 µM, first compound 3.16 µM
[24] = second compound 0.000949 µM, first compound 10 µM
[25] = second compound 0.003 µM, first compound 0.0316 µM
[26] = second compound 0.003 µM, first compound 0.1 µM
[27] = second compound 0.003 µM, first compound 0.316 µM
[28] = second compound 0.003 µM, first compound 1 µM
[29] = second compound 0.003 µM, first compound 3.16 µM
[30] = second compound 0.003 µM, first compound 10 µM
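Note: spheroids exposed to compounds for 7 days.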

SMILES | IC50 (second compound 30 pM) | IC50 (second compound 94.9 pM) | IC50 (second compound 0.0003 µM) | IC50 (second compound 0.000949 µM) | IC50 (second compound 0.003 µM) | viability, T/C [1] | viability, T/C [2] | viability, T/C [3] | viability, T/C [4] | viability, T/C [5] | viability, T/C [6] | viability, T/C [7] | viability, T/C [8] | viability, T/C [9] | viability, T/C [10] | viability, T/C [11] | viability, T/C [12] | viability, T/C [13] | viability, T/C [14] | viability, T/C [15] | other results
CC(C)n1c(=O)n(C)c2cnc3cc(F)c(-c4ccc(OCCCN5CCCCC5)nc4)cc3c21 + COc1cc2c(cc1O)CCNC21CSC2c3c(OC(C)=O)c(C)c4c(c3C(COC1=O)N1C(O)C3Cc5cc(C)c(OC)c(O)c5C(C21)N3C)OCO4 | 3530 nM | < 31.6 nM | < 31.6 nM | < 31.6 nM | < 31.6 nM | 52.2% | 64.9% | 60% | 64% | 49.6% | 28.1% | 39.2% | 36% | 39% | 35.8% | 38.6% | 23.9% | 20.9% | 21.3% | 20.8% | viability, T/C [16]: 24.8%; viability, T/C [17]: 29.4%; viability, T/C [18]: 19.5%; viability, T/C [19]: 2.03%; viability, T/C [20]: 2.57%; viability, T/C [21]: 2.94%; viability, T/C [22]: 4.97%; viability, T/C [23]: 7.02%; viability, T/C [24]: 5.36%; viability, T/C [25]: 0.16%; viability, T/C [26]: 0.18%; viability, T/C [27]: 0.2%; viability, T/C [28]: 0.15%; viability, T/C [29]: 0.13%; viability, T/C [30]: 0.22%
CC1COCCN1c1cc(-c2ccnn2C)c2ccnc(-c3ccn[nH]3)c2n1 (stereo not given) + COc1cc2c(cc1O)CCNC21CSC2c3c(OC(C)=O)c(C)c4c(c3C(COC1=O)N1C(O)C3Cc5cc(C)c(OC)c(O)c5C(C21)N3C)OCO4 | < 31.6 nM | < 31.6 nM | < 31.6 nM | < 31.6 nM | < 31.6 nM | 17.2% | 10.9% | 10.4% | 13% | 14.3% | 16.4% | 10.2% | 7.28% | 8.41% | 11.8% | 13.9% | 16.9% | 4.54% | 4.77% | 5.09% | viability, T/C [16]: 8.72%; viability, T/C [17]: 10.4%; viability, T/C [18]: 12.7%; viability, T/C [19]: 1.76%; viability, T/C [20]: 1.36%; viability, T/C [21]: 2.19%; viability, T/C [22]: 2.16%; viability, T/C [23]: 1.68%; viability, T/C [24]: 2.07%; viability, T/C [25]: 0.19%; viability, T/C [26]: 0.16%; viability, T/C [27]: 0.17%; viability, T/C [28]: 0.16%; viability, T/C [29]: 0.16%; viability, T/C [30]: 0.37%
COc1cc(C)[nH]c(=O)c1CN1CCc2c(Cl)cc(C(OC)C3COC3)c(Cl)c2C1=O (stereo not given) + COc1cc2c(cc1O)CCNC21CSC2c3c(OC(C)=O)c(C)c4c(c3C(COC1=O)N1C(O)C3Cc5cc(C)c(OC)c(O)c5C(C21)N3C)OCO4 | > 10000 nM | > 10000 nM | 3680 nM | < 31.6 nM | < 31.6 nM | 117% | 116% | 110% | 114% | 110% | 92.4% | 117% | 101% | 117% | 112% | 94.8% | 97.3% | 49.4% | 53.3% | 54.1% | viability, T/C [16]: 58.3%; viability, T/C [17]: 51.2%; viability, T/C [18]: 36.5%; viability, T/C [19]: 6.67%; viability, T/C [20]: 3.7%; viability, T/C [21]: 4.01%; viability, T/C [22]: 3.27%; viability, T/C [23]: 2.1%; viability, T/C [24]: 1.64%; viability, T/C [25]: 0.15%; viability, T/C [26]: 0.14%; viability, T/C [27]: 0.13%; viability, T/C [28]: 0.14%; viability, T/C [29]: 0.2%; viability, T/C [30]: 0.26%
COc1ccc([C@@H](O)c2cc(-c3ncnc4cc(N5CCOCC5)ccc34)c(F)cc2Cl)nn1 + COc1cc2c(cc1O)CCNC21CSC2c3c(OC(C)=O)c(C)c4c(c3C(COC1=O)N1C(O)C3Cc5cc(C)c(OC)c(O)c5C(C21)N3C)OCO4 | 1440 nM | 871 nM | < 31.6 nM | < 31.6 nM | < 31.6 nM | 100% | 107% | 95.6% | 58.6% | 31.1% | 19.5% | 105% | 99.2% | 78.7% | 45.4% | 27.4% | 19% | 40.7% | 43.3% | 26.3% | viability, T/C [16]: 13.7%; viability, T/C [17]: 9.98%; viability, T/C [18]: 7.7%; viability, T/C [19]: 2.51%; viability, T/C [20]: 2.48%; viability, T/C [21]: 0.8%; viability, T/C [22]: 0.09%; viability, T/C [23]: 0.1%; viability, T/C [24]: 0.26%; viability, T/C [25]: 0.14%; viability, T/C [26]: 0.23%; viability, T/C [27]: 0.49%; viability, T/C [28]: 1.37%; viability, T/C [29]: 1.46%; viability, T/C [30]: 1.42%
Cc1cc(C)c(CNC(=O)c2cc(-c3ccc(CN4CCOCC4)cc3)cc3c2cnn3C2CCCC2)c(=O)[nH]1 + COc1cc2c(cc1O)CCNC21CSC2c3c(OC(C)=O)c(C)c4c(c3C(COC1=O)N1C(O)C3Cc5cc(C)c(OC)c(O)c5C(C21)N3C)OCO4 | > 10000 nM | > 10000 nM | 629 nM | < 31.6 nM | < 31.6 nM | 99.1% | 113% | 110% | 109% | 101% | 84.2% | 97.7% | 107% | 108% | 102% | 101% | 78% | 50% | 55.4% | 47.4% | viability, T/C [16]: 49%; viability, T/C [17]: 48%; viability, T/C [18]: 40.5%; viability, T/C [19]: 5.06%; viability, T/C [20]: 5.13%; viability, T/C [21]: 5.06%; viability, T/C [22]: 3.5%; viability, T/C [23]: 3.21%; viability, T/C [24]: 4.34%; viability, T/C [25]: 0.15%; viability, T/C [26]: 0.18%; viability, T/C [27]: 0.17%; viability, T/C [28]: 0.15%; viability, T/C [29]: 0.17%; viability, T/C [30]: 0.23%
[2H]c1nc(C)nc([2H])c1-c1cc(NC[C@@H](C)c2cccc3c(C(=O)NC)ccnc23)ncn1 + COc1cc2c(cc1O)CCNC21CSC2c3c(OC(C)=O)c(C)c4c(c3C(COC1=O)N1C(O)C3Cc5cc(C)c(OC)c(O)c5C(C21)N3C)OCO4 | > 10000 nM | > 10000 nM | < 31.6 nM | < 31.6 nM | < 31.6 nM | 108% | 99.4% | 99.7% | 117% | 105% | 103% | 99.2% | 102% | 104% | 106% | 101% | 99.8% | 37.5% | 58.4% | 52.1% | viability, T/C [16]: 48.2%; viability, T/C [17]: 46%; viability, T/C [18]: 41%; viability, T/C [19]: 4.08%; viability, T/C [20]: 3.23%; viability, T/C [21]: 4.22%; viability, T/C [22]: 2.93%; viability, T/C [23]: 3.26%; viability, T/C [24]: 2.21%; viability, T/C [25]: 0.18%; viability, T/C [26]: 0.19%; viability, T/C [27]: 0.19%; viability, T/C [28]: 0.18%; viability, T/C [29]: 0.19%; viability, T/C [30]: 0.34%
